What was measured:
Type in all cases: functional
Details in all cases: read-out: IZ
Priestia megaterium = assay: Antimicrobial activity against Bacillus megaterium at 1000 ug/mL after 24 hrs by paper disk diffusion method
Staphylococcus aureus = assay: Antimicrobial activity against Staphylococcus aureus at 1000 ug/mL after 24 hrs by paper disk diffusion method
Micrococcus luteus = assay: Antimicrobial activity against Micrococcus luteus at 1000 ug/mL after 24 hrs by paper disk diffusion method
Alcaligenes faecalis = assay: Antimicrobial activity against Alcaligenes faecalis at 1000 ug/mL after 24 hrs by paper disk diffusion method
Escherichia coli = assay: Antimicrobial activity against Escherichia coli at 1000 ug/mL after 24 hrs by paper disk diffusion method
Klebsiella pneumoniae = assay: Antimicrobial activity against sKlebsiella pneumoniae at 1000 ug/mL after 24 hrs by paper disk diffusion method
Saccharomyces cerevisiae = assay: Antimicrobial activity against Saccharomyces cerevisiae at 1000 ug/mL after 24 hrs by paper disk diffusion method

SMILES: CCC(O)CC1CCC(C(C)C(=O)OC(C)CC2CCC(C(C)C(=O)O)O2)O1 (configuration not stated) [BONACTIN]
- zone of inhibition at 1000 µg/mL (Priestia megaterium): 8 mm
- zone of inhibition at 1000 µg/mL (Staphylococcus aureus): 7 mm
- zone of inhibition at 1000 µg/mL (Micrococcus luteus): 8 mm
- zone of inhibition at 1000 µg/mL (Alcaligenes faecalis): 10 mm
- zone of inhibition at 1000 µg/mL (Escherichia coli): 9 mm
- zone of inhibition at 1000 µg/mL (Klebsiella pneumoniae): 8.5 mm
- zone of inhibition at 1000 µg/mL (Saccharomyces cerevisiae): 7.5 mm

Source: ChEMBL document CHEMBL1150697, “Isolation and structure determination of an antimicrobial ester from a marine sediment-derived bacterium” (2003)
